# Results reported in patent publication US10591487B2, “Small molecule detection and localization method based on MALDI imaging mass spectrometry” (INDUSTRY-ACADEMIC COOPERATION FOUNDATION, YONSEI UNIVERSITY, priority 2015, dated 2020).
# How the values were obtained:
# CD31 = experiment: Expression level of CD31 by immunohistochemical analysis of cancer cell; format: in vivo, mice; conditions: cancer tissue after dosing voacangine or sunitinib; FIGS. 14 and 15
# Description: Immunohistochemical analysis was performed to find an effect of voacangine against pathological angiogenesis of a cancer cell.
# CD31 or Platelet Endothelial Cell Adhesion Molecule-1 (PECAM-1) are known as being expressed on the surface of a hematoblast such as platelet and naive T cell, natural killer cell, granulocyte, monocyte and cell-to-cell junction of endothelial as transmembrane glycoprotein of 130 kDa type belonging to immunoglobulin super-family.
# [1] = system: capsaicin-induced contraction; conditions: isolated mouse rectum; J. Nat. Med. 65 (2011) 157-165; cited from earlier work
# [2] = system: Human Umbilical Vascular Endothelial Cell (HUVEC); experiment: In vitro and in vivo angiogenesis inhibition (cell-based HUVEC screening); conditions: nontoxic dose, earlier finding of the inventors
# Source text: The inventors screened 300 crude extracts which are taken from a natural plant that is effective in proliferating Human Umbilical Vascular Endothelial Cell (HUVEC) by using a cell-based screening technique.
# VEGF = experiment: Expression level of VEGF, target gene of HIF-1α; conditions: earlier finding of the inventors
# U87MG = experiment: Variation of cancer size in U87MG cancer-diseased animal model; conditions: U87MG xenograft mice; voacangine 10 mg/kg i.p. every day for 12 days; compared with vehicle and sunitinib 40 mg/kg p.o.; FIG. 4
# Description: A cell strain U87MG, which is a kind of human glioglastoma multiforme purchased from American Type Culture Collection (ATCC), was cultivated in a medium to which Phosphate-Buffered Saline (PBS): Matrigel (1:1) is added.
# The cultivated cell strain U87MG of 5×10^6 was merged with PBS:Matrigel (1:1) of 100 μl and the mixture was injected into athymic nude mice for two weeks to induce growth of a cancer cell.
# [3] = Voacangine distribution in tumors, livers and kidneys by MALDI imaging mass spectrometry; format: in vivo, mice; conditions: four hours after treating voacangine, FIG. 5
# Source text: After surgically removing tumors, livers, and kidneys from mouse models after four hours after treating voacangine in Embodiment 3, a specimen was manufactured to perform MALDI mass spectrometry and immunofluorescence with H&E straining and the result was shown in FIG. 5.
# HIF-1α = experiment: Expression level of HIF-1α; conditions: earlier finding of the inventors
compound,measurement,setting,value
"CCN(CC)CCNC(=O)c1c(C)[nH]c(/C=C2\C(=O)Nc3ccc(F)cc32)c1C [sunitinib, Sunitinib malate, reference compound]",CD31 expression,CD31,greatly reduced in expression
CC[C@H]1C[C@@H]2C[N@]3CCc4c([nH]c5ccc(OC)cc45)[C@](C(=O)OC)(C2)C13 [voacangine],capsaicin-induced contraction,[1],dose-dependently inhibiting
same,angiogenesis inhibition,[2],inhibiting in vitro and in vivo angiogenesis by a nontoxic dose
same,expression level of VEGF,VEGF,dose-dependently inhibited
same,cancer size after dosage,U87MG,greatly reduced
same,"localization of voacangine in livers, kidneys and cancer cells",[3],more concentrated in the cancer cells than the livers and kidneys
same,CD31 expression,CD31,greatly reduced in expression
same,expression level of HIF-1α,HIF-1α,dose-dependently inhibited
